In the oligonucleotide strings, read from the 5' end, every base follows the letter of its sugar. An asterisk marks phosphorothioate; unmarked linkages are phosphodiester. Other units and linkages are bracketed, terminal groups are in braces. A string of capitals states the bases alone. e = 2'-O-(2-methoxyethyl) (MOE); [5mC] = 5-methylcytosine
Legend:
[1] = system: Glut4; test: Glut4 mRNA expression in adipocytes (real-time PCR); assay type: cell-based, human; settings: for GLUT4 mRNA: differentiating adipocytes transfected with oligomeric compound; for Glut4 (mRNA expression): adipocytes, 250 nM oligomeric compound, day nine post-transfection, relative to control (1.0)
[2] = system: PPARγ; test: PPARγ mRNA expression in adipocytes (real-time PCR); assay type: cell-based, human; settings: for PPAR gamma mRNA: differentiating adipocytes transfected with oligomeric compound; for PPAR gamma (mRNA expression): adipocytes, 250 nM oligomeric compound, day nine post-transfection, relative to control (1.0)
[3] = system: aP2; test: aP2 mRNA expression in adipocytes (real-time PCR); assay type: cell-based, human; settings: for aP2 mRNA / AP2 mRNA: differentiating adipocytes transfected with oligomeric compound; for aP2 mRNA: Table 75; for AP2 (mRNA expression): adipocytes, 250 nM oligomeric compound, day nine post-transfection, relative to control (1.0)
[4] = system: HuVECs; test: Endothelial tube formation assay in HuVECs; settings: 75 nM oligomeric compound
[5] = system: HSL; test: HSL mRNA expression in adipocytes (real-time PCR); assay type: cell-based, human; settings: for HSL mRNA: differentiating adipocytes transfected with oligomeric compound; for HSL (mRNA expression): adipocytes, 250 nM oligomeric compound, day nine post-transfection, relative to control (1.0)
[6] = system: BJ, B16-F10, T47D, T47Dp53 and HeLa cells; test: Cell cycle assay (propidium iodide flow cytometry), cell line panel; assay type: cell-based; settings: 150 nM oligomeric compound, 4.5 μg/ml LIPOFECTIN, after 72 hours, propidium iodide flow cytometry
[7] = system: adipocytes; test: Triglyceride accumulation assay in adipocytes; assay type: cell-based, human
[8] = differentiating adipocytes transfected with oligomeric compound, Table 75
[9] = adipocytes, 250 nM oligomeric compound, relative to control (1.0), Table 15
[10] = adipocytes, 250 nM oligomeric compound, relative to control (1.0), Table 16
[11] = differentiating adipocytes transfected with oligomeric compound

Row | Substance | % Activity Relative to UTC (tube formation) ([4]; Table 57) [%] | G1 (percentage of cells in phase of the cell cycle) [6] [%] | G2/M (percentage of cells in phase of the cell cycle) [6] [%] | S (percentage of cells in phase of the cell cycle) [6] [%] | SubG1 (percentage of cells in phase of the cell cycle) [6] [%] | aneuploid (percentage of cells) [6] [%] | Glut4 (mRNA expression) ([1]; Table 15) | Glut4 (mRNA expression) ([1]; Table 16) | PPAR gamma (mRNA expression) ([2]; Table 15) | PPAR gamma (mRNA expression) ([2]; Table 16) | AP2 (mRNA expression) ([3]; Table 15) | AP2 (mRNA expression) ([3]; Table 16) | HSL (mRNA expression) ([5]; Table 15) | HSL (mRNA expression) ([5]; Table 16) | TG (triglyceride accumulation) [7, 9] | TG (triglyceride accumulation) [7, 10] | other results
1 | 327910 (antisense eT*eG*eA*eT*eA*eG*e[5mC]*e[5mC]*e[5mC]*eT*eG*eT*eA*e[5mC]*eA*eA*eT*eG*e[5mC]*eT*eG*e[5mC]*eT) [compound 327910] | 55.2 | 49.5 | 17.5 | 33 | 9.3 | 13.1 |  |  |  |  |  |  |  |  |  |  | GLUT4 mRNA ([1]; Table 75): 16 percentage of untreated control (UTC); PPAR gamma mRNA ([2]; Table 75): 39 percentage of untreated control (UTC); aP2 mRNA [3]: 35 percentage of untreated control (UTC); HSL mRNA ([5]; Table 75): 32 percentage of untreated control (UTC); TG (triglyceride accumulation) [7, 8]: 24 percentage of untreated control (UTC)
2 | 327934 (antisense eG*eG*eT*eA*e[5mC]*eA*eA*eT*e[5mC]*eA*eA*e[5mC]*eG*eG*eT*e[5mC]*eG*eA*eT*eG*eG*eT) [compound 327934] |  | 54.4 | 17.4 | 28.2 | 6.6 | 17 | 1.22 | 0.44 | 0.97 | 0.72 | 1.20 | 0.66 | 1.02 | 0.64 | 0.99 | 0.62 | % Activity Relative to UTC (tube formation) ([4]; Table 58): 51.9%
3 | 327888 (antisense eA*eA*eT*eG*e[5mC]*e[5mC]*e[5mC]*e[5mC]*eT*eA*eA*eA*eA*eA*eT*e[5mC]*e[5mC]*eT*eT*eA*eT) [compound 327888] |  | 53.7 | 16.7 | 29.5 | 13.3 | 12.9 | 1.37 | 0.17 | 1.36 | 0.66 | 1.18 | 0.47 | 1.38 | 0.50 | 0.98 | 0.44 | GLUT4 mRNA [1]: 84 percentage of untreated control (UTC); PPAR gamma mRNA [2]: 103 percentage of untreated control (UTC); AP2 mRNA [3]: 102 percentage of untreated control (UTC); % Activity Relative to UTC (tube formation) ([4]; Table 56): 100.0%; HSL mRNA [5]: 134 percentage of untreated control (UTC); TG (triglyceride accumulation) [7, 11]: 132 percentage of untreated control (UTC)
4 | 327922 (antisense eT*e[5mC]*eA*eG*eT*eT*eT*eT*eG*e[5mC]*eA*eT*eG*eG*eA*eT*eT*eT*eG*e[5mC]*eA*e[5mC]*eA) [compound 327922] | 89.7 | 50.4 | 18.9 | 30.7 | 10 | 16.8 | 1.75 | 0.43 | 1.37 | 0.80 | 0.99 | 0.75 | 0.95 | 0.72 | 1.09 | 0.43 | 
5 | 327905 (antisense e[5mC]*eA*eG*eA*e[5mC]*eT*e[5mC]*e[5mC]*eG*eG*eT*eG*eG*eA*eA*eT*eG*eA*eA*eG*eG*eA) [compound 327905] | 48.3 | 56.9 | 15 | 28.1 | 8.5 | 14.7 | 0.84 | 0.40 | 0.54 | 0.83 | 1.14 | 0.68 | 1.11 | 0.69 | 0.69 | 0.58 | 
6 | 327933 (antisense eA*eA*eG*eG*eG*eA*eT*eT*e[5mC]*e[5mC]*eT*eG*eG*eG*eA*eA*eA*eA*e[5mC]*eT*eG*eG*eA*e[5mC]) [compound 327933] |  | 49.6 | 19.1 | 31.3 | 10.2 | 15.9 | 2.52 |  | 1.52 |  | 1.46 |  | 1.35 |  | 1.48 |  | GLUT4 mRNA [1]: 127 percentage of untreated control (UTC); PPAR gamma mRNA [2]: 100 percentage of untreated control (UTC); AP2 mRNA [3]: 82 percentage of untreated control (UTC); % Activity Relative to UTC (tube formation) ([4]; Table 58): 59.3%; HSL mRNA [5]: 132 percentage of untreated control (UTC); TG (triglyceride accumulation) [7, 11]: 127 percentage of untreated control (UTC)
7 | 327919 (antisense eG*eA*eA*eA*e[5mC]*e[5mC]*e[5mC]*eA*eG*e[5mC]*eA*eG*eA*e[5mC]*eA*eA*eT*eG*eT*eA*eG*e[5mC]*eT) [compound 327919] | 103.5 | 54.3 | 15.4 | 30.3 | 10.8 | 16 | 0.32 | 0.18 | 0.52 | 0.57 | 0.79 | 0.48 | 0.57 | 0.37 | 0.58 | 0.40 | 
8 | 327906 (antisense eT*e[5mC]*eA*eT*eA*eG*e[5mC]*e[5mC]*e[5mC]*eT*eG*eT*eA*e[5mC]*eA*eA*eT*eG*e[5mC]*eT*eG*e[5mC]*eT) [compound 327906] | 69.0 | 46.1 | 20.9 | 33 | 15.2 | 15.8 |  |  |  |  |  |  |  |  |  |  | GLUT4 mRNA ([1]; Table 75): 14 percentage of untreated control (UTC); PPAR gamma mRNA ([2]; Table 75): 50 percentage of untreated control (UTC); aP2 mRNA [3]: 46 percentage of untreated control (UTC); HSL mRNA ([5]; Table 75): 37 percentage of untreated control (UTC); TG (triglyceride accumulation) [7, 8]: 25 percentage of untreated control (UTC)
9 | 327941 (antisense eA*eA*e[5mC]*e[5mC]*e[5mC]*eA*e[5mC]*e[5mC]*eG*eA*e[5mC]*eA*eG*e[5mC]*eA*eA*eT*eG*eA*eA*eT*eG*eT*eT) [compound 327941] |  | 57.2 | 12.9 | 29.9 | 8.2 | 15.8 | 2.07 | 0.44 | 0.80 | 0.86 | 1.78 | 0.88 | 1.73 | 0.81 | 1.31 | 0.42 | % Activity Relative to UTC (tube formation) ([4]; Table 58): 74.1%
10 | 327902 (antisense eG*eG*e[5mC]*eT*eG*eT*e[5mC]*eA*eA*eT*eT*e[5mC]*eA*eT*eA*eG*eG*eT*e[5mC]*eA*eG) [compound 327902] | 41.4 | 50.7 | 15.3 | 33.9 | 10.6 | 13.4 |  |  |  |  |  |  |  |  |  |  | GLUT4 mRNA ([1]; Table 75): 15 percentage of untreated control (UTC); PPAR gamma mRNA ([2]; Table 75): 56 percentage of untreated control (UTC); aP2 mRNA [3]: 58 percentage of untreated control (UTC); HSL mRNA ([5]; Table 75): 56 percentage of untreated control (UTC); TG (triglyceride accumulation) [7, 8]: 55 percentage of untreated control (UTC)
11 | 327954 (antisense eA*e[5mC]*eA*eA*eA*eG*eT*eT*e[5mC]*eT*eG*eT*eG*eA*eT*eG*e[5mC]*eA*e[5mC]*eT*eG*eA) [compound 327954] |  |  |  |  |  |  | 0.92 |  | 0.73 |  | 0.95 |  | 1.03 |  | 0.58 |  | % Activity Relative to UTC (tube formation) ([4]; Table 59): 53.3%

From patent publication US8178506B2, “Oligomeric compounds and compositions for use in modulation of small non-coding RNAs” (Regulus Therapeutics Inc., priority 2003, dated 2012)
